Results: patent US12576040B2, “Ionizable lipids and methods of manufacture and use thereof” (priority 2020, dated 2026)

System: not listed separately
Assay: physchem
Format: physicochemical
Settings: not given
Method: The pH-dependence of proton NMR chemical shifts was used to measure the pKa's of the ionizable lipid water-soluble analogues (WSA) following published methods5,6. Chemical shifts of piperazine, imidazole, 2-chloroacetic acid and acetic acid were used as internal pH indicators. Solutions for MC3-WSA were prepared with 100 mM KCl, 2 mM piperazine, 2 mM imidazole, and 5 mM water soluble ionizable lipid analogue in 95% H2O-5% D2O. Solutions for the terminal(N1) and aza amines(N2) at the p-position of carboxylic esters of C24-WSA were prepared with 100 mM KCl, 2 mM piperazine, 2 mM imidazole, 0.2 mM DSS, and 5 mM water soluble ionizable lipid analogue in 95% H2O-5% D2O. Solutions for the internal amine (N3) of C24-WSA were prepared with 100 mM KCl, 2 mM chloroacetic acid, 2 mM acetic acid, 0.2 mM DSS, and 5 mM water soluble ionizable lipid analogue in 95% H2O-5% D2O. Solutions were split into two equal volumes and one titrated to a lower pH using 0.1 M HCl and the other to an upper pH using 0.1 M NaOH where the lower and upper pH bracketed the desired range of pH. Intermediate pH values were obtained by mixing different proportions of these two solutions. NMR measurements were performed on a Bruker 400 MHz spectrometer where 1H spectra were acquired at each of ˜24 pH values ranging from the lower to upper pH. […] Chemical shifts from piperazine, imidazole, 2-chloroacetic acid, and acetic acid were then used to calculate the pH of each solution according to published methods5,6 and the chemical shifts of protons adjacent to each nitrogen in the ionizable lipid water sluble analogue headgroup were fit to the Henderson-Hasselbalch equation to provide the pKa of each Nitrogen. Spectra are in Supplementary FIG. 2.

| Structure (SMILES) | difference between NMR-measured and theoretical pKas |
| --- | --- |
| CCCCCCCCCCC(CCCCCCCC)COC(=O)CCN(CCCCN1CCN(C)CC1)CCC(=O)OCC(CCCCCCCC)CCCCCCCCCC (centres unmarked) [Lipid C24, Bis(2-octyldodecyl) 3,3′-((4-(4-methylpiperazin-1-yl)butyl)azanediyl)dipropionate] | ≤ 0.4 units |

System: not given
Assay: not given
Format: physicochemical
Settings: Table 11a
Method: In certain embodiments, the pKa of the Ionizable Lipids of the Invention included in the LNP is measured by fluorescent enhancement of an anionic lipophilic dye TNS binding to the LNP containing the ionizable lipid. Prior studies have shown that the TNS pKa needs to be near 6.5 for efficient delivery to liver upon IV administration. The pKa in the aqueous phase can be predicted by software such ACDLabs Percepta, resulting in pKas that are higher than the TNS pKa. Given the importance of the LNP pKa in determining their efficiency, we developed new methods (zeta potential, ^1H NMR, modeling) to link the intrinsic pKa of the ionizable lipid to LNP ionization properties, in order to rationally design effective systems for mRNA delivery.
In certain embodiments, the hydrophilic DMG-PEG forms the shell of the LNP. The amount of nucleic acid is represented by the NP mole ratio of the amine on the ionizable lipid to the phosphate groups on the nucleic acid backbone and is typically 3-6. In certain embodiments, the pKa of the LNP to be in the 6-7 range corresponding to the pH in the early endosome. […] The pKa of the LNP was measured using the pH-dependence of fluorescence enhancement of the anionic dye TNS. In certain embodiments, the pKa-dependent endosomal release mechanism was described as an ion-pairing event between the cationic protonated ionizable lipid and anionic endosomal phospholipids where a divergent cone-shape lipid tail of the ionizable lipid facilitates membrane rupture.

| Structure (SMILES) | ΔpKa = Classic-Galas | ΔpKa = Classic-TNS |
| --- | --- | --- |
| CCCCCCCC(=O)N(CCCN(C)C)C(CCCCCCCCC(=O)OC(CCCCCC)CCCCCC)CCCCCCCCC(=O)OC(CCCCCC)CCCCCC [Acuitas Compound 10] | 3.04 | 3.24 |
| CCCCC/C=C\C/C=C\CCCCCCCCOCC(CN(C)C)OCCCCCCCC/C=C\C/C=C\CCCCC (centres unmarked) [DLinDMA, 1,2-dilinoleyloxy-N,N-dimethylaminopropane] | 1.6 | 1.8 |
| CCCCC/C=C\C/C=C\CCCCCCCCC1(CCCCCCCC/C=C\C/C=C\CCCCC)OCC(CCN(C)C)O1 (centres unmarked) [KC2] | 2.32 | 2.62 |
| CCCCCCCCCOC(=O)CCCCCCCN(CCO)CCCCCCCC(=O)OC(CCCCCCCC)CCCCCCCC [Moderna Lipid 5] | 3.34 | 2.34 |

System: HEK 293 cells
Assay: Firefly Luciferase Assay for mRNA Delivery Efficiency / transfection in vitro
Format: cell-based
Parameters: key: +: successfully transfected HEK 293 cells in vitro; −: not active
Settings: Table 12; HEK 293 cells in vitro
From the text: FIG. 32 illustrates luciferase reported expression in vitro and in vivo.
In certain embodiments, the invention encompasses a new class of ionizable lipids (the Ionizable Lipids of the Invention) synthesized bearing two ionizable amines and two degradable ester linkers to linoleic acid tails or branched tails. DL=DiLinoleic Acid, ADDE=Azane Diyl DiEthyl, Cx/Cy=carbon spacers, DMA=DiMethylAmine, Pyr=Pyridine, PipZ=PiperaZine, PipD=PiperiDine, DIPA=DiIsopropylamine, DM=DiMethyl, BOD=BisOctylDecyl.
Summary: LNPs were formulated using total lipid concentration of 50 mM comprised of ionizable lipids/DSPC/Cholesterol/PEG-DMG (50:10:38.5:1.5 mol %). Each one of the lipids were solubilized in ethanol until a clear solution was observed. The four lipids were combined to get 50 mM total lipid concentration (25/5/19.25/0.75 mM respectively) and serial dilutions to get 27.74 mM. […] Purified mRNA was ethanol precipitated, washed and resuspended in nuclease-free water to reach a concentration of 1 mg/ml. […] 16 μl Lipid Mix and 32 μl mRNA solution were mixed on Setting 3 and ejected into 48 μl 1×DPBS pH 7.4. The formed LNPS were then diluted into an additional 96 μl 1×DPBS pH 7.4. LNPs were then dialyzed against 1×DPBS pH 7.4 for 6×1 hr. LNPs were then diluted so that 32 ul contained 200 ng and 12K HEK293 cells were transfected with the same […]. • A: Firefly Luciferase Assay for mRNA Delivery Efficiency. After 24 hours of transfection, transfected cells were conditioned to room temperature for 30 minutes prior to the Firefly Luciferase Assay. Quantilum Recombinant Luciferase standard curve was prepared in 10% EMEM in 5-fold serial dilutions. 50 ul of each standard point from the range of 3.9×10^−5 mg/ml to 4.88×10^−3 mg/ml were included in the microplate as a positive enzyme activity control (data not shown) to maintain a linearity of 10^7 RLU/mg/ml. The ONE-Glo substrate, previously conditioned to room temperature for at least 4 hours, was added to each untransfected, transfected and Quantilum wells in a ratio 1:1. Assay plates were incubated for 3 minutes in darkness and immediately introduced into the Cytation 5 Cell Imaging Multi-Mode Reader (Biotek) to read luminescence. The results are illustrated in FIG. 7. • B: Ribogreen Assay for mRNA Encapsulation Efficiency. 1×TE Buffer and Triton Buffer (2% v/v in 1×TE Buffer) were added in duplicates into a black microplate per LNP. LNPs were diluted to 4 ng/ul in 1×DPBS pH 7.4 and added to each TE/Triton well in a ratio 1:1. Two standard curves were included in the Ribogreen Assay, one containing mRNA and 1×TE Buffer and other containing mRNA and Triton Buffer. Each one of these standard curves were used to calculate the mRNA concentration in each TE Buffer or Triton Buffer. This approach using two standard curves is more accurate for calculating the encapsulation efficiency and mRNA concentrations, in comparison to a single standard curve. Standards were included in the microplate after diluted LNPs were added to the plate. Microplates were incubated at 37° C. for 10 minutes to extract LNPs with Triton. Ribogreen reagent was diluted 1:100 in 1×TE Buffer and added to each well in a ratio 1:1. Microplates were immediately introduced into the Cytation 5 Cell Imaging Multi-Mode Reader (Biotek) to read Fluorescence (Ex485/Em528). The results are illustrated in FIG. 8. • C: Dynamic Light Scattering for LNP Size (red dots are PDI right y axis). LNPs were diluted to 6.25 ng/ul in 1×DPBS pH 7.4 and transferred into a quartz cuvette (ZEN2112) to measure size by Dynamic Light Scattering (DLS) in the Zetasizer Nano ZS (Malvern Panalytical) using particle RI of 1.45 and Absorption of 0.001 in 1×PBS at 25° C. with viscosity of 1.02 cP and RI of 1.335.

| Structure (SMILES) | Transfection +/− |
| --- | --- |
| CCCCC/C=C\C/C=C\CCCCCCCCOC(=O)CCN(CCC(=O)OCCCCCCCC/C=C\C/C=C\CCCCC)CCN1CCN(C)CC1 (racemic) [DL-ADDE-C2/C2-4Me-PipZ] | + |
| CCCCC/C=C\C/C=C\CCCCCCCCOC(=O)CCN(CCNC(=O)OC(C)(C)C)CCC(=O)OCCCCCCCC/C=C\C/C=C\CCCCC (racemic) [DL-ADDE-C2/C2-BocA] | − |
| CCCCC/C=C\C/C=C\CCCCCCCCOC(=O)CCN(CCC(=O)OCCCCCCCC/C=C\C/C=C\CCCCC)CCN(C(C)C)C(C)C (racemic) [DL-ADDE-C2/C2-DIPA] | − |
| CCCCC/C=C\C/C=C\CCCCCCCCOC(=O)CCN(CCC(=O)OCCCCCCCC/C=C\C/C=C\CCCCC)CCN(C)C (racemic) [DL-ADDE-C2/C2-DMA] | + |
| CCCCC/C=C\C/C=C\CCCCCCCCOC(=O)CCN(CCN)CCC(=O)OCCCCCCCC/C=C\C/C=C\CCCCC (racemic) [DL-ADDE-C2/C2-DeBocA] | − |
| CCCCC/C=C\C/C=C\CCCCCCCCOC(=O)CCN(CCC(=O)OCCCCCCCC/C=C\C/C=C\CCCCC)CCN1CCCCC1 (racemic) [DL-ADDE-C2/C2-PipD] | + |
| CCCCC/C=C\C/C=C\CCCCCCCCOC(=O)CCN(CCCN1CCN(C)CC1)CCC(=O)OCCCCCCCC/C=C\C/C=C\CCCCC (racemic) [DL-ADDE-C2/C3-4Me-PipZ] | + |
| CCCCC/C=C\C/C=C\CCCCCCCCOC(=O)CCN(CCC(=O)OCCCCCCCC/C=C\C/C=C\CCCCC)CC(C)(C)CN(C)C (racemic) [DL-ADDE-C2/C3-DM-DMA] | − |
| CCCCC/C=C\C/C=C\CCCCCCCCOC(=O)CCN(CCCN(C)C)CCC(=O)OCCCCCCCC/C=C\C/C=C\CCCCC (racemic) [DL-ADDE-C2/C3-DMA] | + |
| CCCCC/C=C\C/C=C\CCCCCCCCOC(=O)CCN(CCCN1CCCC1)CCC(=O)OCCCCCCCC/C=C\C/C=C\CCCCC (racemic) [DL-ADDE-C2/C3-Pyr] | + |
| CCCCC/C=C\C/C=C\CCCCCCCCOC(=O)CCN(CCCCN1CCN(C)CC1)CCC(=O)OCCCCCCCC/C=C\C/C=C\CCCCC (racemic) [DL-ADDE-C2/C4-4Me-PipZ] | + |
| CCCCC/C=C\C/C=C\CCCCCCCCOC(=O)CCN(CCCCN(C)C)CCC(=O)OCCCCCCCC/C=C\C/C=C\CCCCC (racemic) [DL-ADDE-C2/C4-DMA] | + |
| CCCCC/C=C\C/C=C\CCCCCCCCOC(=O)CCCCN(CCCCC(=O)OCCCCCCCC/C=C\C/C=C\CCCCC)CCCCN1CCN(C)CC1 (racemic) [DL-ADDE-C4/C4-4Me-PipZ] | + |
| CCCCC/C=C\C/C=C\CCCCCCCCOC(=O)CCCCN(CCCCC(=O)OCCCCCCCC/C=C\C/C=C\CCCCC)CCCCN(C)C (racemic) [DL-ADDE-C4/C4-DMA] | + |
| CCCCC/C=C\C/C=C\CCCCCCCCOC(=O)CCCCN(CCCCC(=O)OCCCCCCCC/C=C\C/C=C\CCCCC)CCCCN1CCCCC1 (racemic) [DL-ADDE-C4/C4-PipD] | + |
| CCCCCCCCCCC(CCCCCCCC)COC(=O)CCN(CCCCN1CCN(C)CC1)CCC(=O)OCC(CCCCCCCC)CCCCCCCCCC (centres unmarked) [BOD-ADDE-C2/C4-4-Me-PipZ] | + |
| CCCCCCCCCCC(CCCCCCCC)COC(=O)CCN(CCC(=O)OCC(CCCCCCCC)CCCCCCCCCC)CCN1CCN(C)CC1 (centres unmarked) [BODD-ADDE-C2/C2-4Me-PipZ] | + |

Same assay, conditions: Table 13A

| Structure (SMILES) | Transfection +/− |
| --- | --- |
| CCCCC/C=C\C/C=C\CCCCCCCCOC(=O)CCN(CCO)CCC(=O)OCCCCCCCC/C=C\C/C=C\CCCCC (racemic) [DL-ADDE-EA] | − |
| CCCCC/C=C\C/C=C\CCCCCCCCOC(=O)CCN(CCC(=O)OCCCCCCCC/C=C\C/C=C\CCCCC)CCC(C)C (racemic) [DL-ADDE-IP] | − |
| CCCCC/C=C\C/C=C\CCCCCCCCOC(=O)CCN(CCCO)CCC(=O)OCCCCCCCC/C=C\C/C=C\CCCCC (racemic) [DL-ADDE-PA] | − |

Same assay, conditions: Table 13C

| Structure (SMILES) | Transfection +/− |
| --- | --- |
| CCCCC/C=C\C/C=C\CCCCCCCC(=O)NCCSSCCN [L-Amide-AEDS] | − |
| CCCCC/C=C\C/C=C\CCCCCCCC(=O)NCCN [L-Amide-AE] | − |
| CCCCC/C=C\C/C=C\CCCCCCCC(=O)NCCN(C)C [L-Amide-DMA] | − |
